In US4507487A, “Chemical compounds” (Bristol-Myers Company, priority 1983, dated 1985):
Values after ≈ are worked out from the molar mass of the structure shown. Where two headings read alike, the source gives them in different places.

Key:
[1] = test system: Penicillinsensitive S. aureus; assay: MIC, two-fold serial agar dilution in Mueller-Hinton agar, group (G+)-Ia; assay type: cell-based; conditions: Staphylococcus aureus; (G+)-Ia, penicillin-sensitive S. aureus (5 strains); read-out: Geometric Mean of MIC
Method: (§1) In the primary evaluation of the compounds of this invention, the Minimum Inhibitory Concentrations (MIC's) of the compounds were determined by the two-fold serial agar dilution method in Mueller-Hinton agar against 32 strains of test organisms in six groups.

[2] = test system: Penicillinresistant S. aureus; assay: MIC, two-fold serial agar dilution in Mueller-Hinton agar, group (G+)-Ib; assay type: cell-based; conditions: Staphylococcus aureus, read-out: Geometric Mean of MIC
Method: as §1
(G+)Ib: Penicillinresistant S. aureus (5 strains)

[3] = test system: Cephalothinsensitive E. coli, Kl. pneumoniae and Pr. mirabilis; assay: MIC, two-fold serial agar dilution in Mueller-Hinton agar, group (G-)-Ia; assay type: cell-based; conditions: (G-)-Ia, cephalothin-sensitive E. coli (2), Kl. pneumoniae (1), Pr. mirabilis (2 strains); read-out: Geometric Mean of MIC
Method: as §1
(G-)Ia: Cephalothinsensitive E. coli (2 strains), Kl. pneumoniae (1
strain) and Pr. mirabilis (2 strains)

[4] = test system: Cephalothinresistant E. coli and Kl. pneumoniae; assay: MIC, two-fold serial agar dilution in Mueller-Hinton agar, group (G-)-Ib; assay type: cell-based; conditions: read-out: Geometric Mean of MIC
Method: as §1
(G-)Ib: Cephalothinresistant E. coli (3 strains) and Kl. pneumoniae (3

[5] = test system: M. morganii, Ent. cloacae and Ser. marcescens; assay: MIC, two-fold serial agar dilution in Mueller-Hinton agar, group (G-)-II; assay type: cell-based; conditions: (G-)-II, M. morganii (1), Ent. cloacae (2), Ser. marcescens (2 strains); read-out: Geometric Mean of MIC
Method: as §1
(G-)II: M. morganii (1 strain), Ent. cloacae (2 strains) and Ser.

[6] = test system: Ps. aeruginosa; assay: MIC, two-fold serial agar dilution in Mueller-Hinton agar, group (G-)-III; assay type: cell-based; conditions: Pseudomonas aeruginosa, Ps. aeruginosa (6 strains), read-out: Geometric Mean of MIC
Method: as §1

[7] = test system: E. coli A15164; assay: MIC against specific test organism; assay type: cell-based; conditions: Escherichia coli; E. coli A15164, cephalothin-resistant strain; read-out: Minimum Inhibitory Concentration
Method: as §1
(§2) The test method was as described for Table 1.

[8] = test system: E. coli Juhl; assay: MIC against specific test organism; assay type: cell-based; conditions: Escherichia coli, read-out: Minimum Inhibitory Concentration
Method: as §1, §2

[9] = test system: Ent. cloacae A9656; assay: MIC against specific test organism; assay type: cell-based; conditions: Enterobacter cloacae, read-out: Minimum Inhibitory Concentration
Method: as §1, §2

[10] = test system: K. pneumoniae A9867; assay: MIC against specific test organism; assay type: cell-based; conditions: Klebsiella pneumoniae, A9867, read-out: Minimum Inhibitory Concentration
Method: as §1, §2

[11] = test system: K. pneumoniae D11; assay: MIC against specific test organism; assay type: cell-based; conditions: Klebsiella pneumoniae, read-out: Minimum Inhibitory Concentration
Method: as §1, §2

[12] = test system: M. morganii A9553; assay: MIC against specific test organism; assay type: cell-based; conditions: Morganella morganii, read-out: Minimum Inhibitory Concentration
Method: as §1, §2

[13] = test system: Pr. mirabilis A9554; assay: MIC against specific test organism; assay type: cell-based; conditions: Proteus mirabilis, read-out: Minimum Inhibitory Concentration
Method: as §1, §2

[14] = test system: Ps. aeruginosa A15150; assay: MIC against specific test organism; assay type: cell-based; conditions: Pseudomonas aeruginosa, read-out: Minimum Inhibitory Concentration
Method: as §1, §2

[15] = test system: Ps. aeruginosa A20717; assay: MIC against specific test organism; assay type: cell-based; conditions: Pseudomonas aeruginosa, read-out: Minimum Inhibitory Concentration
Method: as §1, §2

[16] = test system: Ps. aeruginosa A9843; assay: MIC against specific test organism; assay type: cell-based; conditions: Pseudomonas aeruginosa, read-out: Minimum Inhibitory Concentration
Method: as §1, §2

[17] = test system: S. aureus BX-1633-2; assay: MIC against specific test organism; assay type: cell-based; conditions: Staphylococcus aureus, BX16332; S. aureus BX-1633-2, penicillin-resistant strain; read-out: Minimum Inhibitory Concentration
Method: as §1, §2

[18] = test system: S. aureus Smith; assay: MIC against specific test organism; assay type: cell-based; conditions: Staphylococcus aureus, read-out: Minimum Inhibitory Concentration
Method: as §1, §2

[19] = test system: Ser. marcescens A20019; assay: MIC against specific test organism; assay type: cell-based; conditions: Serratia marcescens, read-out: Minimum Inhibitory Concentration
Method: as §1, §2

[20] = Mouse blood levels after single intramuscular injection; assay type: in vivo, mice; conditions: for concentration at 10 min / concentration at 20 min / concentration at 0.5 h / concentration at 40 min / concentration at 50 min / concentration at 1 h / concentration at 1.5 h: read-out: Mouse Blood Level; for concentration at 0.5 h: 30 minutes; for concentration at 1 h: 60 minutes; for concentration at 1.5 h: 90 minutes
Method: The absorption of some of the preferred compounds were determined in mice following a single intramuscular injection of the test compound (dissolved in 0.1M phosphate buffer; pH 7) at a dosage of 10, 20 or 40 mg/kg. Blood samples were collected from the orbital sinuses into heparinized capillary tubes and assayed in Nutrient Agar (pH 6.6) using E. coli Ess-22-31 as the test organism. The blood levels at various time intervals, the half-life values (t1/2) and the areas under the curve (AUC) are shown in Table 3.

CSc1scc[n+]1CC1=C(C(=O)[O-])N2C(=O)C(NC(=O)/C(=N\OC(C)(C)C(=O)O)c3csc(N)n3)[C@H]2SC1 (stereo partly shown) [Example 1, 7-[(Z)-2-(2-Aminothiazol-4-yl)-2-(2-carboxyprop-2-oxyimino)acetamido]-3-(2-methylthiothiazolio)methyl-3-cephem-4-carboxylate]
MIC [1]: 1.2 µg/mL (≈ 2 µM) | MIC [2]: 3.6 µg/mL (≈ 6.01 µM) | MIC [3]: 0.038 µg/mL (≈ 0.0635 µM) | MIC [4]: 0.69 µg/mL (≈ 1.15 µM) | MIC [5]: 0.24 µg/mL (≈ 0.401 µM) | MIC [6]: 1.4 µg/mL (≈ 2.34 µM) | MIC [7]: 0.8 µg/mL (≈ 1.34 µM) | MIC [8]: 0.1 µg/mL (≈ 0.167 µM) | MIC [9]: 0.1 µg/mL (≈ 0.167 µM) | MIC [10]: 1.6 µg/mL (≈ 2.67 µM) | MIC [11]: 0.1 µg/mL (≈ 0.167 µM) | MIC [12]: 0.1 µg/mL (≈ 0.167 µM) | MIC [13]: 0.05 µg/mL (≈ 0.0835 µM) | MIC [14]: 0.8 µg/mL (≈ 1.34 µM) | MIC [15]: 3.1 µg/mL (≈ 5.18 µM) | MIC [16]: 1.6 µg/mL (≈ 2.67 µM) | MIC [17]: 3.1 µg/mL (≈ 5.18 µM) | MIC [18]: 1.6 µg/mL (≈ 2.67 µM) | MIC [19]: 0.1 µg/mL (≈ 0.167 µM) | AUC ([20]; 10 mg/kg im): 5000 ng·h/mL | half-life ([20]; 10 mg/kg im): 15 min | concentration at 10 min ([20]; 10 mg/kg im): 12000 ng/mL | concentration at 20 min ([20]; 10 mg/kg im): 7400 ng/mL | concentration at 0.5 h ([20]; 10 mg/kg im): 4700 ng/mL | concentration at 40 min ([20]; 10 mg/kg im): < 3000 ng/mL | AUC ([20]; 20 mg/kg im): 16000 ng·h/mL | half-life ([20]; 20 mg/kg im): 14 min | concentration at 10 min ([20]; 20 mg/kg im): 33000 ng/mL | concentration at 20 min ([20]; 20 mg/kg im): 24000 ng/mL | concentration at 0.5 h ([20]; 20 mg/kg im): 18000 ng/mL | concentration at 40 min ([20]; 20 mg/kg im): 9400 ng/mL | concentration at 50 min ([20]; 20 mg/kg im): 6700 ng/mL | concentration at 1 h ([20]; 20 mg/kg im): 3500 ng/mL | concentration at 1.5 h ([20]; 20 mg/kg im): < 3000 ng/mL | AUC ([20]; 40 mg/kg im): 25000 ng·h/mL | half-life ([20]; 40 mg/kg im): 13 min | concentration at 10 min ([20]; 40 mg/kg im): 51000 ng/mL | concentration at 20 min ([20]; 40 mg/kg im): 40000 ng/mL | concentration at 0.5 h ([20]; 40 mg/kg im): 29000 ng/mL | concentration at 40 min ([20]; 40 mg/kg im): 15000 ng/mL | concentration at 50 min ([20]; 40 mg/kg im): 9000 ng/mL | concentration at 1 h ([20]; 40 mg/kg im): 4600 ng/mL | concentration at 1.5 h ([20]; 40 mg/kg im): < 3000 ng/mL
